Test results reported in ChEMBL document CHEMBL3886762, “Substituted pyridizinone derivatives as PDE10 inhibitors” (2016).

target: cAMP and cAMP-inhibited cGMP 3',5'-cyclic phosphodiesterase 10A (Homo sapiens, UniProt Q9Y233); experiment: Fluorescence Polarization Assay: The fluorescence polarization assay for cyclic nucleotide phosphodiesterases was performed using an IMAP® FP kit supplied by Molecular Devices, Sunnyvale, Calif. (product #R8139). IMAP® technology has been applied previously to phosphodiesterase assays (Huang, W., et al., J. Biomol Screen, 2002, 7: 215).
Sequence (Q9Y233 whole entry): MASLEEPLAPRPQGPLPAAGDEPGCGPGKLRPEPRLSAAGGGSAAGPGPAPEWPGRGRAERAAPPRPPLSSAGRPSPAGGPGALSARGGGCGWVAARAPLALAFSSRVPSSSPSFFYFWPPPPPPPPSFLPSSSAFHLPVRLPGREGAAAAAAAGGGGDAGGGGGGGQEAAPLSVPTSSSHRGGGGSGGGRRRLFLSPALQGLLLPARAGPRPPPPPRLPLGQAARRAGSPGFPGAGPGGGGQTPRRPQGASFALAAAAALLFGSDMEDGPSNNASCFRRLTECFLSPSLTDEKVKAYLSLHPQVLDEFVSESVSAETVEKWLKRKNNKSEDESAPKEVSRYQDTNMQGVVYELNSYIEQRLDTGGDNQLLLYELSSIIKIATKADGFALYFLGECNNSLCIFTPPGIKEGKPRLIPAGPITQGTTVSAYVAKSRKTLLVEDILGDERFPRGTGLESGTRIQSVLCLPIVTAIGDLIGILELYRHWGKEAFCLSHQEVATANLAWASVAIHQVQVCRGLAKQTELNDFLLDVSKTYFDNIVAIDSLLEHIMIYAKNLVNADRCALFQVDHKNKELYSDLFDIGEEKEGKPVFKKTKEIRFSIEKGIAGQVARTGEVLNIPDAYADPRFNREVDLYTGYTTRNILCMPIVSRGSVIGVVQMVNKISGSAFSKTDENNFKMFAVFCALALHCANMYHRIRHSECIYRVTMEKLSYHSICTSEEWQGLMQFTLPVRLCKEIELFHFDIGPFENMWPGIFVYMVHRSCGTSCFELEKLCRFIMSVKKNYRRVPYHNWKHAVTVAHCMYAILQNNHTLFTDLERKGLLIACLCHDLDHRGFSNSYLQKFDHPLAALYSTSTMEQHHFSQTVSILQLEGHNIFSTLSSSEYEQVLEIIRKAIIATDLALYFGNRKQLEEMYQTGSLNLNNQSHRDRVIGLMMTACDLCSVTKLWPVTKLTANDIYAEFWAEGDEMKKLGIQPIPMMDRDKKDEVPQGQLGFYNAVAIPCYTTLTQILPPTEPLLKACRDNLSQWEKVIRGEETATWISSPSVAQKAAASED

Ki | Compound
100 pM | Cc1nnc(CNc2cc(OC[C@H]3C[C@@H]3c3ccn(C)n3)nn(C)c2=O)s1
1 pM | Cc1nnc(CNc2cc(OC[C@H]3C[C@@H]3c3ccc4ccccc4n3)nn(C)c2=O)s1
905 pM | Cc1nnc(CNc2cc(OC[C@H]3C[C@@H]3c3nn(C)c4ccccc34)nn(C)c2=O)s1
2 pM | Cc1nnc(CNc2cc(OC[C@H]3C[C@@H]3c3ccc4c(n3)CCC4)nn(C)c2=O)s1
473 pM | Cc1ccc(CNc2cc(OC[C@H]3C[C@@H]3c3ccn(C)n3)nn(C)c2=O)nc1
144 pM | COc1ccc([C@H]2C[C@@H]2COc2cc(NCc3cnn(C(F)F)c3)c(=O)n(C)n2)nc1
